Patent publication US20120301551A1, “COMPOUNDS AND COMPOSITIONS FOR TREATING NEURONAL DEATH OR NEUROLOGICAL DYSFUNCTION” (Neurotech Pharmaceuticals Co., Ltd., priority 2005, published 2012)
Read-outs that look alike come from different tables or passages of the source.

Key:
[1] = test system: mixed cortical cell cultures containing neurons and glia; assay: Fe2+-induced free radical neurotoxicity in mixed cortical cell cultures (LDH release); assay type: cell-based, mouse; conditions: 50 μM FeCl2, neuronal death 24 hr later (LDH); read-out: IC50 (50% protection against Fe^2+-induced free radical neurotoxicity)
Description: Mouse cortical cell cultures (DIV 11-15) were exposed to 50 μM Fe^2+ or 10 mM BSO, alone or with inclusion of 5 mM Li^+. Neuronal death was analyzed 24 hr later by measuring levels of LDH released into the bathing medium, mean±SEM (n=9-12 culture wells per condition).
Mouse cortical cell cultures (DIV 11-15) were exposed to 30 μM Fe^2+ or 10 mM BSO, alone or in the presence of 1 μM 2-hydroxy TTBA, 10-100 μM vitamin E, or 5 mM Li^+.
For mixed neuron-glia culture, mouse cerebral cortices were removed from brains of the 11-15 day-old-fetal mice (E11-15), gently triturated and plated on 24 well plates (2×10^5 cells/plate) precoated with 100 μg/ml poly-D-lysine and 4 pg/ml laminin. Cultures were maintained at 37° C. in a humidified 5% CO2 atmosphere.
After 7-8 days in vitro (DIV 7-8), 10 μM cytosine arabinofuranoside (Ara-C) was included to halt overgrowth of glia. The drug treatment was carried on DIV 11-15 cortical cell culture.
Oxidative stress was induced by exposing mixed cortical cell cultures containing neurons and glia (DIV 11-15) to 50 μM FeCl2, a hydroxyl radical-producing transition metal via a Fenton reaction, or 10 mM DL-buthionine-[S,R]-sulfoximine (BSO), a glutathione depleting agent.

[2] = test system: cerebral cortical cell; assay: anti-oxidant effect: neuron protecting effect against Fe+2 (50 uM FeCl2); assay type: cell-based; conditions: cerebral cortical cell treated by 50 uM FeCl2
Description: After cerebral cortical cell was treated by 50 uM FeCl2 to induce oxidative stress, the anti-oxidant effects of many compounds were evaluated. Results were shown as IC50 (uM) (Item A of Table 3 below).
(§1) In the Table 3, A, B and C mean neuron protecting effect against Fe^+2, suppressing effect on production of NO and suppressing effect on production of beta-amyloid, respectively. The term “ND” means “Not determined.”

[3] = test system: BV-2 cell line (production of NO); assay: anti-inflammatory effect: suppression of LPS-induced production of NO; assay type: cell-based; conditions: BV-2 cell line treated by LPS; for IC50: read-out: IC50 (uM) B: suppressing effect on production of NO
Description: After BV-2 cell line was treated by LPS to induce production of NO, the anti-inflammatory effects of many compounds were evaluated. Results were shown as IC50 (uM) (Item B of Table 3 below).
as §1

[4] = test system: beta-amyloid (Aβ42); assay: suppression of beta-amyloid (Aβ42) production in CHO cells (ELISA); assay type: cell-based, Chinese hamster; conditions: CHO cell line having the increased level of beta-amyloid; for IC50: read-out: IC50 (uM) C: suppressing effect on production of beta-amyloid
Description: The suppressing effects of many drug candidates on production of beta-amyloid were evaluated in CHO cell line having the increased level of beta-amyloid. Results were shown as IC50 (uM) (Item C of Table 3 below).
as §1
Cells were treated with increasing concentrations of various chemicals in Chinese hamster ovary (CHO) cells stably transfected with human wild APP695 and the PS1ΔExon9, and analyzed Aβ42 levels in culture medium by colorimetric sandwich ELISA kit (BIOSOURCE, Camarillo, Calif.). In CHO cells, IC50 of Chemical—01-08 on Aβ42 lowering effect was 20-100 uM (Table 4).

O=C(O)c1cc(NCc2ccc(Cl)cc2)ccc1O [CBAS]
IC50 [1]: 200 nM

O=C(O)c1cc(NCCc2ccc(C(F)(F)F)cc2)ccc1O [Compound 01]
IC50 ([2]; Neuron): 0.099 µM | IC50 ([3]; Mus musculus): 24.3 µM | IC50 ([4]; Cricetulus griseus): 19.6 µM

O=C(O)c1cc(NCCc2ccccc2)ccc1O [Compound 02]
IC50 ([2]; Neuron): 1.04 µM | IC50 ([3]; Mus musculus): > 100 µM

O=C(O)c1cc(NCCc2ccccc2C(F)(F)F)ccc1O [Compound 03]
IC50 ([2]; Neuron): 0.1 µM | IC50 ([3]; Mus musculus): 33 µM

O=C(O)c1cc(NCCc2cccc(C(F)(F)F)c2)ccc1O [Compound 04]
IC50 ([2]; Neuron): 0.08 µM | IC50 ([3]; Mus musculus): 26.1 µM

COc1ccc(CCNc2ccc(O)c(C(=O)O)c2)cc1 [Compound 05]
IC50 ([2]; Neuron): 0.11 µM | IC50 ([3]; Mus musculus): 60.3 µM

O=C(O)c1cc(NCCc2cc(F)ccc2F)ccc1O [Compound 06]
IC50 ([2]; Neuron): 0.27 µM | IC50 ([3]; Mus musculus): 82.2 µM

O=C(O)c1cc(NCCc2ccccc2Cl)ccc1O [Compound 07]
IC50 ([2]; Neuron): 0.11 µM | IC50 ([3]; Mus musculus): 60.8 µM | IC50 ([4]; Cricetulus griseus): 19.1 µM

O=C(O)c1cc(NCCc2cccc(Cl)c2)ccc1O [Compound 08]
IC50 ([2]; Neuron): 0.23 µM | IC50 ([3]; Mus musculus): 76.5 µM

O=C(O)c1cc(NCCc2ccccc2Br)ccc1O [Compound 09]
IC50 ([2]; Neuron): 0.14 µM | IC50 ([3]; Mus musculus): 78.8 µM

O=C(O)c1cc(NCCc2cccc(Br)c2)ccc1O [Compound 10]
IC50 ([2]; Neuron): 0.23 µM | IC50 (uM) B: suppressing effect on production of NO [3]: No

Cc1ccc(CCNc2ccc(O)c(C(=O)O)c2)cc1 [Compound 11]
IC50 ([2]; Neuron): 0.24 µM | IC50 ([3]; Mus musculus): 23.9 µM

O=C(O)c1cc(NCCc2c(F)cccc2F)ccc1O [Compound 12]
IC50 ([2]; Neuron): 0.36 µM | IC50 ([3]; Mus musculus): 62.7 µM

COc1ccccc1CCNc1ccc(O)c(C(=O)O)c1 [Compound 13]
IC50 ([2]; Neuron): 0.27 µM | IC50 ([3]; Mus musculus): 94 µM

O=C(O)c1cc(NCCc2ccc(Cl)cc2)ccc1O [Compound 14]
IC50 ([2]; Neuron): 0.11 µM | IC50 ([3]; Mus musculus): > 100 µM

COc1cccc(CCNc2ccc(O)c(C(=O)O)c2)c1 [Compound 15]
IC50 ([2]; Neuron): 0.32 µM | IC50 (uM) B: suppressing effect on production of NO [3]: No

O=C(O)c1cc(NCCc2ccc(F)cc2F)ccc1O [Compound 17]
IC50 ([2]; Neuron): 0.21 µM | IC50 ([3]; Mus musculus): > 300 µM

O=C(O)c1cc(NCCc2ccc(Cl)c(Cl)c2)ccc1O [Compound 18]
IC50 ([2]; Neuron): 0.1 µM | IC50 ([3]; Mus musculus): 63.2 µM

O=C(O)c1cc(NCCc2cccc(F)c2)ccc1O [Compound 19]
IC50 ([2]; Neuron): 0.26 µM | IC50 ([3]; Mus musculus): 82.6 µM

O=C(O)c1cc(NCCc2ccccc2[N+](=O)[O-])ccc1O [Compound 20]
IC50 ([2]; Neuron): 0.4 µM | IC50 ([3]; Mus musculus): 12.5 µM

O=C(O)c1cc(NCCc2ccc(F)c(F)c2)ccc1O [Compound 21]
IC50 ([2]; Neuron): 0.32 µM | IC50 ([3]; Mus musculus): 23.7 µM | IC50 ([4]; Cricetulus griseus): 68 µM

O=C(O)c1cc(NCCc2cc(F)cc(F)c2)ccc1O [Compound 22]
IC50 ([2]; Neuron): 0.25 µM | IC50 ([3]; Mus musculus): 135 µM

O=C(O)c1cc(NCCc2ccccc2F)ccc1O [Compound 23]
IC50 ([2]; Neuron): 0.11 µM | IC50 ([3]; Mus musculus): 34.9 µM

O=C(O)c1cc(NCCc2ccc(Cl)cc2Cl)ccc1O [Compound 24]
IC50 ([2]; Neuron): 0.031 µM | IC50 ([3]; Mus musculus): 40.8 µM | IC50 ([4]; Cricetulus griseus): 29.2 µM

Cc1ccccc1CCNc1ccc(O)c(C(=O)O)c1 [Compound 25]
IC50 ([2]; Neuron): 0.07 µM | IC50 ([3]; Mus musculus): 18.6 µM | IC50 (uM) C: suppressing effect on production of beta-amyloid [4]: No

O=C(O)c1cc(NCCc2cccc(C(F)(F)F)c2F)ccc1O [Compound 26]
IC50 ([2]; Neuron): 0.13 µM | IC50 ([3]; Mus musculus): 61.7 µM | IC50 ([4]; Cricetulus griseus): > 100 µM

O=C(O)c1cc(NCCc2cc(C(F)(F)F)cc(C(F)(F)F)c2)ccc1O [Compound 27]
IC50 [2]: 0.044 µM | IC50 [3]: 6.25 µM | IC50 [4]: 109 µM
